# Patent publication US12396459B2, “Synergistically effective herbicide composition comprising pyridate and at least one defined 4-HPPD inhibitor” (BELCHIM CROP PROTECTION NV, priority 2018, dated 2025)
# Columns and labels:
# Chenopodium album = assay: Field trial post-emergence in maize: CHEAL; type: in vivo; settings: 13-14 DAA, # = 1
# Experimental: Herbicidal activity of herbicide compositions according to the first aspect of the present invention with regard to different types of unwanted vegetation was determined during trials performed on test fields (field trials). Individual compositions comprising pyridate and individual compositions comprising a defined 4-HPPD inhibitor are compared with a herbicide composition according to the invention comprising both pyridate and a defined 4-HPPD inhibitor. The expected activity of the combination of the active compounds pyridate and a defined 4-HPPD inhibitor is calculated according to above mentioned calculation method by Colby, in order to evaluate a synergistic effect between pyridate and a defined 4-HPPD inhibitor.
# Herbicidal activity was determined by applying herbicide compositions on emerged unwanted vegetation on fields where maize was cultivated. Pyridate and a defined 4-HPPD inhibitor were applied as a tank mixture by mixing these active compounds prior to use in a spray tank. The corresponding mixture was in the form of a spray liquor. Besides, spray liquors of individual compositions comprising pyridate and of individual compositions comprising a defined 4-HPPD inhibitor were used. Test plants of unwanted vegetation with a growth stage corresponding to BBCH 10-18 (according to the extended BBCH-scale) were sprayed with the active compound preparations such that particular desired amounts of active compounds are applied per unit area. Spray liquor was diluted with water to arrive at an application volume of 50 to 450 L/ha. At a specified number of days after application (DAA), the degree of damage to the unwanted vegetation is rated in % of plants of unwanted vegetation that were killed, which was assessed by visually controlling the plants.
# Lamium amplexicaule = assay: Example 6 herbicidal effect: LAMAM; type: in vivo; settings: 7 DAA
smiles,measurement,setting,value
"CCCCCCCCSC(=O)Oc1cc(Cl)nnc1-c1ccccc1 [PYR, (6-chloro-3-phenylpyridazin-4-yl) octylsulfanylformate]",herbicidal effect (h.e.),"Chenopodium album; g a.c./ha: PYR 450, TEM 38, PYR + TEM 450 + 38",49%
same,herbicidal effect (h.e.),"Chenopodium album; g a.c./ha: PYR 450, TOP 12.4, PYR + TOP 450 + 12.4",35%
same,herbicidal effect (h.e.),"Lamium amplexicaule; g a.c./ha: PYR 10, TEM 22, PYR + TEM 10 + 100",0%
same,herbicidal effect (h.e.),"Lamium amplexicaule; g a.c./ha: PYR 300, TEM 100, PYR + TEM 300 + 100",5%
same,herbicidal effect (h.e.),"Lamium amplexicaule; g a.c./ha: PYR 900, TEM 44, PYR + TEM 900 + 44",10%
